The values that follow come from patent EP4653440A1, “HETEROCYCLIC COMPOUND, AND PHARMACEUTICAL COMPOSITION AND USE THEREOF” (Prime Gene Therapeutics Co., Ltd., priority 2023, dated 2024).

The structures appear in SMILES notation.

One assay deals with ROCK2 (Homo sapiens, UniProt O75116). The experiment in a line: ROCK2 kinase enzymatic activity (HTRF, STK2 substrate). Format: biochemical. Conditions: ROCK2 kinase reaction 30 minutes at room temperature. From the text: (§1) The kinase activity data was expressed by comparing the kinase activity of the test compound and that of the blank group (containing only DMSO), and the IC50 value was obtained by curve fitting using Prism software (GraphPad7.0).
Sequence of ROCK2 (O75116 whole entry): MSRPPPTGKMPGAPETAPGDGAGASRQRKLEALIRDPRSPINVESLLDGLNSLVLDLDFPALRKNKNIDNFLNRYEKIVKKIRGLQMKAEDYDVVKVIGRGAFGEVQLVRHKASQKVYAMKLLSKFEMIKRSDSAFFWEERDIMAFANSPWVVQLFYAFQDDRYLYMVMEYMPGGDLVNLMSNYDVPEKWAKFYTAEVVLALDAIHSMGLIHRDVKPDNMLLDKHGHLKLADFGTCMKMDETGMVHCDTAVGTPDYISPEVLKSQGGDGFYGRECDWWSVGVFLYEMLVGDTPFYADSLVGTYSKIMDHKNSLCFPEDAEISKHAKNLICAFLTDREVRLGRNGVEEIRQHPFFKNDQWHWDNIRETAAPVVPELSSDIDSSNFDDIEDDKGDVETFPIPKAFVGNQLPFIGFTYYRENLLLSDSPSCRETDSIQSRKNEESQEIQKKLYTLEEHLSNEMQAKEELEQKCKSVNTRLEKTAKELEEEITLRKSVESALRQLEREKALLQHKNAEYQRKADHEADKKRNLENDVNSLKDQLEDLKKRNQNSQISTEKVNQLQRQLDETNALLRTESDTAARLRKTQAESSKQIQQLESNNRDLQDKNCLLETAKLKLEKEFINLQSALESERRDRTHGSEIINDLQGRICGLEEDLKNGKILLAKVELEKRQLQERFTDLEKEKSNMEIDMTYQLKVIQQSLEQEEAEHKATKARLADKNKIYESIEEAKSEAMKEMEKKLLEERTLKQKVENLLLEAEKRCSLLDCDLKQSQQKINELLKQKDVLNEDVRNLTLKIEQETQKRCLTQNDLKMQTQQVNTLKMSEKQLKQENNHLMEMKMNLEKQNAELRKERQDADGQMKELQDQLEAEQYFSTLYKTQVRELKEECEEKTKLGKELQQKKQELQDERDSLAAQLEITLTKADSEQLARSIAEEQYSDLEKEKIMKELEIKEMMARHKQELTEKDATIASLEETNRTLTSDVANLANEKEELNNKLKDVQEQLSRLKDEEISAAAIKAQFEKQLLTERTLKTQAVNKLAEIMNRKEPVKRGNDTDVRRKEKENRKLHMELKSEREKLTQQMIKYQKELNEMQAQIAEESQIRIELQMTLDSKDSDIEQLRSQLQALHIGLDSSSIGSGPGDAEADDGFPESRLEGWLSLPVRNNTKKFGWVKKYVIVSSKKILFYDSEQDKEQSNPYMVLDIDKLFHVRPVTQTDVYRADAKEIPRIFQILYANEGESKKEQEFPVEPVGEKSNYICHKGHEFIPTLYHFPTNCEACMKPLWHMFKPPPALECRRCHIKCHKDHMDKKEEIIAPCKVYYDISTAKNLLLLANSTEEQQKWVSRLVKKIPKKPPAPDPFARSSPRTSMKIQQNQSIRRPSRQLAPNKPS
Background: TR-FRET usually uses a lanthanide donor and a delayed reading to cut background.

A further assay has as its target ROCK1 (Homo sapiens, UniProt Q13464). The assay can be described thus: ROCK1 kinase enzymatic activity (HTRF, STK2 substrate). Format: biochemical. To be noted: ROCK1 kinase reaction 20 minutes at room temperature.
Text: as §1

In assay [1] the test system is phosphorylation of myosin light chain T18/S19. The assay can be described thus: In Cell Western for phosphorylation of myosin light chain in A7r5 cells. The assay is classed as cell-based, rat. An excerpt: The rat smooth muscle cell line A7r5 was used, and the A7r5 cell culture conditions were DMEM containing 10% FBS. Phspho-MLC-T18/S19 specific antibody and a second detection antibody were used to detect the phosphorylation level of myosin light chain by In Cell Western. Cells treated with positive compounds were used as positive controls, while the group without compounds but with compound solvents was used as negative controls. DRAQ5 stained cell nuclei were used as internal references. GraphPad Prism 7.0 software was used, and fitting was carried out by using a non-linear regression curve with varying slopes to determine the absolute IC50 value.
On the first day, A7r5 cells were resuspended in serum-free medium and seeded into 384 wells of PDL coated transparent black plates at a density of 5000 cells per well. Serum starvation culture was performed for 4 hours, and the cells were incubated with the compound in serum-free medium for 1 hour. 50 µL of 8% PFA (polyformaldehyde) was added to each well and fixed at room temperature for 1 hour. The liquid in the wells was discard and 90 µL of ice methanol was added to each well to permeabilize the cells at 4 °C for 1 hour. Then, PBST (0.1% Tween20-PBS) was added using an automatic separator to wash three times. After patting the plate for drying, 50 µL blocking solution was added to each well for sealing at room temperature for 1 hour. The phspho-MLC-T18/S19 specific antibody was diluted with the blocking solution at a ratio of 1:200. After adding 20 µL to each well, incubation was carried out overnight at 4 °C with a sealed film.
On the second day, the liquid in the wells was discarded and PBST was added using an automatic separator to wash the plate 5 times. After patting the plate for drying, the second detection antibody was diluted with blocking solution at a ratio of 1:800 and DRAQ5 at a ratio of 1:1000. After adding 20 µL to each well, incubation was carried out at room temperature for 1 hour. Then, the liquid in the wells was discarded and PBST was added using an automatic separator to wash the plate 3 times, followed by adding ddH2O to wash the plate 3 times. After patting the plate for drying, it was scaned using a LICOR Odyssey near-infrared imaging scanner.

Sequence of ROCK1 (Q13464 whole entry): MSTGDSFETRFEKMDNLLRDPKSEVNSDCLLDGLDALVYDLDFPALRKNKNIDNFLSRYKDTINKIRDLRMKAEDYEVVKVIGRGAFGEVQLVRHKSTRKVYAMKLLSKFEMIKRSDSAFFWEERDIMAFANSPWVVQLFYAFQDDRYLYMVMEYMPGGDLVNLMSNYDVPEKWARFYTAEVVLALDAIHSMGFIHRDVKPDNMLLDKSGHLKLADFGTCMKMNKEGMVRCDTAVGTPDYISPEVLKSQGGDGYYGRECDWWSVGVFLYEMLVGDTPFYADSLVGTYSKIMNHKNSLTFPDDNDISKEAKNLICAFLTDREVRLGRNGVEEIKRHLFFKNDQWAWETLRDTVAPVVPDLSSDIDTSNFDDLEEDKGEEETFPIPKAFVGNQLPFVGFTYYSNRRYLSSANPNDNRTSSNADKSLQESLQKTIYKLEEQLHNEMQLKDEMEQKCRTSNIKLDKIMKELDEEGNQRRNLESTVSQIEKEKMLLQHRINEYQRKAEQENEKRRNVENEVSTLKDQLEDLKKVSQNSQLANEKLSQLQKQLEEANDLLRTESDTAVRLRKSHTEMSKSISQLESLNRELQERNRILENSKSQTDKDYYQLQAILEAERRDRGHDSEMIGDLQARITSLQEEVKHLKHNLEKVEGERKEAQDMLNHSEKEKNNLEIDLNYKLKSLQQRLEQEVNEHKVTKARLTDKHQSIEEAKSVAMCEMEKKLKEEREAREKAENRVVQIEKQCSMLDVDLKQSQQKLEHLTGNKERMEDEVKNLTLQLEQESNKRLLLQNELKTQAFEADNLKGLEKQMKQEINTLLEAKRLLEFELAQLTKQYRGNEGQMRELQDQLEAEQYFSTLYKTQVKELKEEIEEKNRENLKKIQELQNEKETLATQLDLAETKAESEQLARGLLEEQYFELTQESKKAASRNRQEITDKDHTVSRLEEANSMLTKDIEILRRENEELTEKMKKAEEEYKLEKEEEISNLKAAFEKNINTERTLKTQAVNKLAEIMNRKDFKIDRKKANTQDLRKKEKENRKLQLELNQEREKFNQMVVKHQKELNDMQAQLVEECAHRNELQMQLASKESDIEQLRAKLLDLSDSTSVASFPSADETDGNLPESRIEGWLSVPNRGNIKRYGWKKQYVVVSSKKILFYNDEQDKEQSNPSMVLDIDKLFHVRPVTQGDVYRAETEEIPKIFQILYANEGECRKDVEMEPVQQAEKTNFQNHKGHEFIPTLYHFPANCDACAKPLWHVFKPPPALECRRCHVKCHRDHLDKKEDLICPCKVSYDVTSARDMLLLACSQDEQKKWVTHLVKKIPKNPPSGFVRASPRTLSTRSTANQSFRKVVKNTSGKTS

`N#CC1CCCC1n1cc(-c2ncnc3[nH]ccc23)c(N)n1` (stereo not shown) [Example 7, 2-(3-amino-4-(7H-pyrrolo[2,3-d]pyrimidin-4-yl)-1H-pyrazol-1-yl)cyclopentane-1-nitrile]: the IC50 – broadly, the midpoint of a concentration-inhibition curve – was under 50 nM on ROCK2; under 50 nM on ROCK1; 1860 nM in assay [1] (Rattus norvegicus, A7R5, 1 h).
Take `N#CCC1(n2cc(-c3ncnc4[nH]ccc34)c(N)n2)CCCCC1` [Example 5, 2-(1-(3-amino-4-(7H-pyrrolo[2,3-d]pyrimidin-4-yl)-1H-pyrazol-1-yl)cyclohexyl)acetonitrile]: the IC50 against ROCK2 was under 5 nM; on ROCK1, under 5 nM; in assay [1] (Rattus norvegicus, A7R5, 1 h), 111 nM.
As for `N#CCC(C1CC1)n1cc(-c2ncnc3[nH]ccc23)c(N)n1` (stereo not shown) [Example 12, 3-(3-amino-4-(7H-pyrrolo[2,3-d]pyrimidin-4-yl)-1H-pyrazol-1-yl)-3-cyclopropylpropanitrile], the IC50 against ROCK2 was under 2 nM; on ROCK1, under 5 nM; in assay [1] (Rattus norvegicus, A7R5, 1 h), 85 nM.
On the same counts, the results for `N#CC[C@H](C1CCC1)n1cc(-c2ncnc3[nH]ccc23)c(N)n1` [Example 27, (R)-3-(3-amino-4-(7H-pyrrolo[2,3-d]pyrimidin-4-yl)-1H-pyrazol-1-yl)-3-cyclobutylpropionitrile] are under 5 nM, under 5 nM and 95 nM.
Take `C[C@H]1CNCCCN1S(=O)(=O)c1cccc2cncc(F)c12` [Ripasudil, reference compound]: the IC50 against ROCK2 is 29.6 nM; in assay [1] (Rattus norvegicus, A7R5, 1 h), 1680 nM.
`N#CCC1(n2cc(-c3ncnc4[nH]ccc34)c(N)n2)CC2(CCC2)C1` [Example 19, 2-(2-(3-amino-4-(7H-pyrrolo[2,3-d]pyrimidin-4-yl)-1H-pyrazol-1-yl)spiro[3.3]heptan-2-yl)acetonitrile]: the IC50 against ROCK2 is under 5 nM; at ROCK1, under 5 nM; in assay [1] (Rattus norvegicus, A7R5, 1 h), 167 nM.
For `CC1CC([C@@H](CC#N)n2cc(-c3ncnc4[nH]ccc34)c(N)n2)C1` (stereo partly drawn) [Example 18, (3R)-3-(3-amino-4-(7H-pyrrolo[2,3-d]pyrimidin-4-yl)-1H-pyrazol-1-yl)-3-(-3-methylcyclobutyl)propanitrile], the IC50 on ROCK2 was under 5 nM; at ROCK1, under 5 nM; in assay [1] (Rattus norvegicus, A7R5, 1 h) it was 296 nM.
Turning to `N#CCC(C1CC2(CCC2)C1)n1cc(-c2ncnc3[nH]ccc23)c(N)n1` (stereo not shown) [Example 20, 3-(3-amino-4-(7H-pyrrolo[2,3-d]pyrimidin-4-yl)-1H-pyrazol-1-yl)-3-(spiro[3.3]heptan-2-yl)propionitrile], the IC50 on ROCK2 is under 5 nM; on ROCK1 it was under 5 nM; in assay [1] (Rattus norvegicus, A7R5, 1 h), 218 nM.
As to `N#CCC1(n2cc(-c3ncnc4[nH]ccc34)c(N)n2)CC(C#N)C1` (stereo not shown) [Example 9, 3-(3-amino-4-(7H-pyrrolo[2,3-d]pyrimidin-4-yl)-1H-pyrazol-1-yl)-3-(cyanomethyl)cyclobutane-1-carbonitrile], the IC50 on ROCK2 was under 10 nM; against ROCK1, under 10 nM; in assay [1] (Rattus norvegicus, A7R5, 1 h), 68 nM.
On to `N#CCC(C1CC2CC2C1)n1cc(-c2ncnc3[nH]ccc23)c(N)n1` (stereo not shown) [Example 24, 3-(3-amino-4-(7H-pyrrolo[2,3-d]pyrimidin-4-yl)-1H-pyrazol-1-yl)-3-(bicyclo[3.1.0]hexyl-3-yl)propionitrile], for which the IC50 against ROCK2 is under 5 nM; against ROCK1, under 5 nM; in assay [1] (Rattus norvegicus, A7R5, 1 h), 214 nM.
For `CC1CC([C@H](CC#N)n2cc(-c3ncnc4[nH]ccc34)c(N)n2)C1` (stereo partly drawn) [Example 17, (3S)-3-(3-amino-4-(7H-pyrrolo[2,3-d]pyrimidin-4-yl)-1H-pyrazol-1-yl)-3-(-3-methylcyclobutyl)propanitrile], the IC50 at ROCK2 is under 5 nM; at ROCK1, under 5 nM; in assay [1] (Rattus norvegicus, A7R5, 1 h), 225 nM.
Regarding `N#CC[C@@H](C1CCC1)n1cc(-c2ncnc3[nH]ccc23)c(N)n1` [Example 28, (S)-3-(3-amino-4-(7H-pyrrolo[2,3-d]pyrimidin-4-yl)-1H-pyrazol-1-yl)-3-cyclobutylpropionitrile], the IC50 at ROCK2 is under 5 nM; against ROCK1, under 5 nM; in assay [1] (Rattus norvegicus, A7R5, 1 h), 120 nM.
As for `N#CCC(C1CCC2(CC2)C1)n1cc(-c2ncnc3[nH]ccc23)c(N)n1` (stereo not shown) [Example 23, 3-(3-amino-4-(7H-pyrrolo[2,3-d]pyrimidin-4-yl)-1H-pyrazol-1-yl)-3-(spiro[2.4]hept-5-yl)propionitrile], the IC50 is under 5 nM against ROCK2; under 5 nM on ROCK1; 195 nM in assay [1] (Rattus norvegicus, A7R5, 1 h).
Consider `N#CCC1(n2cc(-c3ncnc4[nH]ccc34)c(N)n2)CCS(=O)(=O)C1` (stereo not shown) [Example 3, 2-(3-(3-amino-4-(7H-pyrrolo[2,3-d]pyrimidin-4-yl)-1H-pyrazol-1-yl)-1,1-dioxotetrahydrothiophen-3-yl)acetonitrile], for which the IC50 is under 1 nM at ROCK2; under 2 nM against ROCK1; 78 nM in assay [1] (Rattus norvegicus, A7R5, 1 h).
On the same counts, the results for `N#CCC(C1CC2(CC2)C1)n1cc(-c2ncnc3[nH]ccc23)c(N)n1` (stereo not shown) [Example 21, 3-(3-amino-4-(7H-pyrrolo[2,3-d]pyrimidin-4-yl)-1H-pyrazol-1-yl)-3-(spiro[2.3]hexan-5-yl)propionitrile] are under 5 nM, under 5 nM and 185 nM.
On the same counts, the results for `CC1(C)CC(C(CC#N)n2cc(-c3ncnc4[nH]ccc34)c(N)n2)C1` (stereo not shown) [Example 15, 3-(3-amino-4-(7H-pyrrolo[2,3-d]pyrimidin-4-yl)-1H-pyrazol-1-yl)-3-(3,3-dimethylcyclobutyl)propionitrile] are under 5 nM, under 5 nM and 215 nM.
On the same counts, the results for `N#CC1CCCCC1n1cc(-c2ncnc3[nH]ccc23)c(N)n1` (stereo not shown) [Example 8, 2-(3-amino-4-(7H-pyrrolo[2,3-d]pyrimidin-4-yl)-1H-pyrazol-1-yl)cyclohexane-1-nitrile] are under 50 nM, under 50 nM and 1940 nM.
With `N#CCC1(n2cc(-c3ncnc4[nH]ccc34)c(N)n2)CS(=O)(=O)C1` [Example 2, 2-(3-(3-amino-4-(7H-pyrrolo[2,3-d]pyrimidin-4-yl)-1H-pyrazol-1-yl)-1,1-dioxothietan-3-yl)acetonitrile], the IC50 against ROCK2 was under 1 nM; on ROCK1, under 2 nM; in assay [1] (Rattus norvegicus, A7R5, 1 h), 85 nM.
The matching figures for `N#CCC(C1CC2(CCCC2)C1)n1cc(-c2ncnc3[nH]ccc23)c(N)n1` (stereo not shown) [Example 22, 3-(3-amino-4-(7H-pyrrolo[2,3-d]pyrimidin-4-yl)-1H-pyrazol-1-yl)-3-(spiro[3.4]octan-2-yl)propionitrile]: under 5 nM, under 5 nM and 264 nM.
As for `Cc1ccc(C(=O)OCc2ccc([C@@H](CN)C(=O)Nc3ccc4cnccc4c3)cc2)c(C)c1` [Netarsudil, reference compound], in assay [1] (rat smooth muscle cell line A7r5, 1 hour compound incubation in serum-free medium, absolute IC50), the IC50 was 288 nM. This lies in the sub-micromolar range.
`N#CCC1(n2cc(-c3ncnc4[nH]ccc34)c(N)n2)CCCC1` [Example 4, 2-(1-(3-amino-4-(7H-pyrrolo[2,3-d]pyrimidin-4-yl)-1H-pyrazol-1-yl)cyclopentyl)acetonitrile]: the IC50 is under 10 nM against ROCK2; under 10 nM at ROCK1; 160 nM in assay [1] (Rattus norvegicus, A7R5, 1 h).
In assay [1] (Rattus norvegicus, A7R5, 1 h), `CC(C)NC(=O)COc1cccc(-c2nc(Nc3ccc4[nH]ncc4c3)c3ccccc3n2)c1` [Belumosudil, reference compound] returned an IC50 of 3940 nM.
